Laboratory results as given in US20250290117A1, “MOLECULAR PHENOTYPIC ANTIMICROBIAL SUSCEPTIBILITY TESTING” (priority 2024, published 2025).

Assays:
Type in all cases: cell-based
Escherichia coli [1] = assay: Molecular phenotypic antimicrobial susceptibility test (extraction or DNA purification prior to PCR)
Method in brief: (§1)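 Semi-quantitative PCR read-out: growth was taken as resistance and its absence as sensitivity, with DNA either purified (e.g. bead-based) or amplified directly from lysed sample without extraction. Before PCR, 0.5 McFarland dilutions of incubated clinical specimens were held 12-16 hours with breakpoint-level antimicrobials in culture media, beside a drug-free control.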

[2] = test system: pathogens of clinical samples; assay: Molecular phenotypic antimicrobial susceptibility test of clinical samples, direct PCR without a separate DNA purification step (Table 6)
Method in brief: as §1

[3] = test system: pathogens of clinical samples; assay: Molecular phenotypic antimicrobial susceptibility test of clinical samples, extraction DNA purification step prior to PCR (Table 6)
Method in brief: as §1

Escherichia coli [4] = assay: Traditional culture-based antimicrobial susceptibility test
Method in brief: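 Susceptibility of each E. coli isolate to each antimicrobial was determined the standard way: pathogens were grown, isolated and then exposed to the agents.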

[5] = E. coli, clinical sample of r10-r24
[6] = E. coli, clinical sample of r158-r172
[7] = K. aerogenes, clinical sample of r136-r150
[8] = K. pneumoniae, clinical sample of r121-r135
[9] = M. morganii, clinical sample of r55-r69
[10] = M. morganii, clinical sample of r70-r84
[11] = P. mirabilis, clinical sample of r25-r39
[12] = P. mirabilis, clinical sample of r40-r54

Piperacillin/Tazobactam
Ct at Sensitive Breakpoint (Escherichia coli [1]; E. coli isolate 1, Ct at control (average) 21.238): 25.572
Molecular Antimicrobial Susceptibility Result (Escherichia coli [1]; E. coli isolate 1, at sensitive breakpoint): Sensitive (Antimicrobial wells with pathogen load detected below the control wells (typically >2 cycle thresholds later) may be reported as Sensitive)
Ct at Sensitive Breakpoint (Escherichia coli [1]; E. coli isolate 2, Ct at control (average) 21.270): 22.685
Molecular Antimicrobial Susceptibility Result (Escherichia coli [1]; E. coli isolate 2, at sensitive breakpoint): Sensitive (Antimicrobial wells with pathogen load detected below the control wells (typically >2 cycle thresholds later) may be reported as Sensitive)
Ct at Sensitive Breakpoint (Escherichia coli [1]; E. coli isolate 3, Ct at control (average) 22.0995): 20.541
Molecular Antimicrobial Susceptibility Result (Escherichia coli [1]; E. coli isolate 3, at sensitive breakpoint): Sensitive (Antimicrobial wells with pathogen load detected below the control wells (typically >2 cycle thresholds later) may be reported as Sensitive)
Ct at Sensitive Breakpoint (Escherichia coli [1]; E. coli isolate 4, Ct at control (average) 17.5733): 26.05
Molecular Antimicrobial Susceptibility Result (Escherichia coli [1]; E. coli isolate 4, at sensitive breakpoint): Sensitive (Antimicrobial wells with pathogen load detected below the control wells (typically >2 cycle thresholds later) may be reported as Sensitive)
Ct at Sensitive Breakpoint (Escherichia coli [1]; E. coli isolate 5, Ct at control (average) 21.0933): 25.44
Molecular Antimicrobial Susceptibility Result (Escherichia coli [1]; E. coli isolate 5, at sensitive breakpoint): Sensitive (Antimicrobial wells with pathogen load detected below the control wells (typically >2 cycle thresholds later) may be reported as Sensitive)
Molecular Antibiotic Susceptibility Result [2, 5]: Sensitive (Antimicrobial wells with pathogen load detected below the control wells (typically >2 cycle thresholds later) may be reported as Sensitive)
Ct ([2]; E. coli, clinical sample of r10-r24, Ct control avg 12.97): 24.816
Molecular Antibiotic Susceptibility Result [2, 6]: Sensitive (Antimicrobial wells with pathogen load detected below the control wells (typically >2 cycle thresholds later) may be reported as Sensitive)
Ct ([2]; E. coli, clinical sample of r158-r172, Ct control avg 12.894): 29.34
Molecular Antibiotic Susceptibility Result [2, 7]: Sensitive (Antimicrobial wells with pathogen load detected below the control wells (typically >2 cycle thresholds later) may be reported as Sensitive)
Ct ([2]; K. aerogenes, clinical sample of r136-r150, Ct control avg 13.854): 30.839
Molecular Antibiotic Susceptibility Result [2, 8]: Sensitive (Antimicrobial wells with pathogen load detected below the control wells (typically >2 cycle thresholds later) may be reported as Sensitive)
Ct ([2]; K. pneumoniae, clinical sample of r121-r135, Ct control avg […]): 28.974
Molecular Antibiotic Susceptibility Result [2, 9]: Sensitive (Antimicrobial wells with pathogen load detected below the control wells (typically >2 cycle thresholds later) may be reported as Sensitive)
Ct ([2]; M. morganii, clinical sample of r55-r69, Ct control avg 12.09): 13.986
Molecular Antibiotic Susceptibility Result [2, 10]: Sensitive (Antimicrobial wells with pathogen load detected below the control wells (typically >2 cycle thresholds later) may be reported as Sensitive)
Ct ([2]; M. morganii, clinical sample of r70-r84, Ct control avg 11.677): 28.975
Molecular Antibiotic Susceptibility Result [2, 11]: Sensitive (Antimicrobial wells with pathogen load detected below the control wells (typically >2 cycle thresholds later) may be reported as Sensitive)
Ct ([2]; P. mirabilis, clinical sample of r25-r39, Ct control avg 11.801): 30.658
Molecular Antibiotic Susceptibility Result [2, 12]: Sensitive (Antimicrobial wells with pathogen load detected below the control wells (typically >2 cycle thresholds later) may be reported as Sensitive)
Ct ([2]; P. mirabilis, clinical sample of r40-r54, Ct control avg 10.06): 30.24
Molecular Antibiotic Susceptibility Result [3, 5]: Sensitive (Antimicrobial wells with pathogen load detected below the control wells (typically >2 cycle thresholds later) may be reported as Sensitive)
Ct ([3]; E. coli, clinical sample of r10-r24, Ct Control Avg 18.112): 26.499
Molecular Antibiotic Susceptibility Result [3, 6]: Sensitive (Antimicrobial wells with pathogen load detected below the control wells (typically >2 cycle thresholds later) may be reported as Sensitive)
Ct ([3]; E. coli, clinical sample of r158-r172, Ct Control Avg 20.146): 30.693
Molecular Antibiotic Susceptibility Result [3, 7]: Sensitive (Antimicrobial wells with pathogen load detected below the control wells (typically >2 cycle thresholds later) may be reported as Sensitive)
Ct ([3]; K. aerogenes, clinical sample of r136-r150, Ct Control Avg 19.994): 32.586
Molecular Antibiotic Susceptibility Result [3, 8]: Sensitive (Antimicrobial wells with pathogen load detected below the control wells (typically >2 cycle thresholds later) may be reported as Sensitive)
Ct ([3]; K. pneumoniae, clinical sample of r121-r135, Ct Control Avg 24.272): 34.274
Molecular Antibiotic Susceptibility Result [3, 9]: Sensitive (Antimicrobial wells with pathogen load detected below the control wells (typically >2 cycle thresholds later) may be reported as Sensitive)
Ct ([3]; M. morganii, clinical sample of r55-r69, Ct Control Avg 28.86): 36.138
Molecular Antibiotic Susceptibility Result [3, 10]: Sensitive (Antimicrobial wells with pathogen load detected below the control wells (typically >2 cycle thresholds later) may be reported as Sensitive)
Ct ([3]; M. morganii, clinical sample of r70-r84, Ct Control Avg 27.053): Undet
Molecular Antibiotic Susceptibility Result [3, 11]: Sensitive (Antimicrobial wells with pathogen load detected below the control wells (typically >2 cycle thresholds later) may be reported as Sensitive)
Ct ([3]; P. mirabilis, clinical sample of r25-r39, Ct Control Avg 26.064): 28.92
Molecular Antibiotic Susceptibility Result [3, 12]: Sensitive (Antimicrobial wells with pathogen load detected below the control wells (typically >2 cycle thresholds later) may be reported as Sensitive)
Ct ([3]; P. mirabilis, clinical sample of r40-r54, Ct Control Avg 26.987): 33.895
Traditional Culture Results (Escherichia coli [4]; E. coli #1 - WDCM 00090 - 6.2×E3): Sensitive
Traditional Culture Results (Escherichia coli [4]; E. coli #2 - WDCM 00090 - 6.2×E3): Sensitive
Traditional Culture Result (Escherichia coli [4]; E. coli isolate 1 (Table 3)): Sensitive
Traditional Culture Result (Escherichia coli [4]; E. coli isolate 2 (Table 3)): Sensitive
Traditional Culture Result (Escherichia coli [4]; E. coli isolate 3 (Table 3)): Sensitive
Traditional Culture Result (Escherichia coli [4]; E. coli isolate 4 (Table 3)): Sensitive
Traditional Culture Result (Escherichia coli [4]; E. coli isolate 5 (Table 3)): Sensitive
Traditional Culture Result (Escherichia coli [4]; E. coli isolate JJ1887): Sensitive
